Here are results for five compounds from ChEMBL document CHEMBL5465560, “Selectivity Literature for EUbOPEN Chemogenomic Library” (2024).

SMILES strings stand for the structures.

The target of assay [1] is G protein-coupled receptor kinase 4 (Homo sapiens) (UniProt P32298). In words: Selectivity interaction (KinomeScan (DiscoverX)) EUB0001619a GRK4. To be noted: at 1 µM.
Assay [2] deals with T1, Mitogen-activated protein kinase kinase kinase 13 (Homo sapiens) (UniProt O43283).
T1 sequence (whole entry): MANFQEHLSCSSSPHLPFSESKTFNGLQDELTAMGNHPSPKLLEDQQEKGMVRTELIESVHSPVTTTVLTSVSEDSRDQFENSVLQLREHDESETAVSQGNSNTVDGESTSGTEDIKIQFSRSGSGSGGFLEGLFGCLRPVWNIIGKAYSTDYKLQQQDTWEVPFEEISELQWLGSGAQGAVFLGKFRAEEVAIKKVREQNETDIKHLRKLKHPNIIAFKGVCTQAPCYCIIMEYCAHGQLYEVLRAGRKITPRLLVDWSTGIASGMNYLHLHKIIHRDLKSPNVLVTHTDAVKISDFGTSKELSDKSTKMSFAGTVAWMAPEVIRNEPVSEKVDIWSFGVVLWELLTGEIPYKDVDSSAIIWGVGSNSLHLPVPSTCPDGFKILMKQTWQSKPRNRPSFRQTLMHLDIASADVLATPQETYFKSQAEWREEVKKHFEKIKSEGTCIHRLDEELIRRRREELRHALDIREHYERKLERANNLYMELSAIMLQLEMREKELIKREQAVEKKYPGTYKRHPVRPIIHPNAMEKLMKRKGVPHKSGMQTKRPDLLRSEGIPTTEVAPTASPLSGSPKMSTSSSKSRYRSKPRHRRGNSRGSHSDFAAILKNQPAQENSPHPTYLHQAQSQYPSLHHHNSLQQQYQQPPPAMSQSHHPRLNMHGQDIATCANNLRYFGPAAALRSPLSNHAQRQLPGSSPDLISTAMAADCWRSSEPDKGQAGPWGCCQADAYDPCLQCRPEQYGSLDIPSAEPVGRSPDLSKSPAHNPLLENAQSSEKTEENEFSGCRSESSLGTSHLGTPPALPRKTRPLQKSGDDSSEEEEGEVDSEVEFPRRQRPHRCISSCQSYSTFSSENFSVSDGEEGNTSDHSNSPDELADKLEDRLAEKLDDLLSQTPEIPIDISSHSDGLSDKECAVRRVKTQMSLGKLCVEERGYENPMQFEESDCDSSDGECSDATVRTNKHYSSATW
To be noted: at 10 µM.

Assay [3] concerns the target Serine/threonine-protein kinase OSR1 (Homo sapiens) (UniProt O95747). The experiment in a line: Selectivity interaction (ActivX KiNativ screen (kinase selectivity in THP-1 cell lysates)) EUB0000639a OXSR1. It counts as subcellular. The settings on record: lysate.
In assay [4] the test system is Tyrosine-protein kinase ABL1 (Homo sapiens), P00519 [E255K]. The experiment in a line: (§1) Selectivity interaction (Ambit KINOMEscan and KiNATiv profiling in Jurkat cells) EUB0000090b ABL1. It counts as cell-based. To be noted: at 1 µM.
Assay [5] concerns Tyrosine-protein kinase ABL1 (Homo sapiens), P00519 [F317I]. The description is as §1. It counts as cell-based. The settings on record: at 1 µM.
In assay [6] the test system is Tyrosine-protein kinase ABL1 (Homo sapiens), P00519 [F317L]. The assay is described as §1. It counts as cell-based. The settings on record: at 1 µM.
Assay [7] relates to Tyrosine-protein kinase ABL1 (Homo sapiens), P00519 [H396P]. The assay is described as §1. The format is cell-based. To be noted: at 1 µM.
Assay [8] concerns Tyrosine-protein kinase ABL1 (Homo sapiens), P00519 [M351T]. Described as §1. The format is cell-based. The settings on record: at 1 µM.
For assay [9], the system named is Tyrosine-protein kinase ABL1 (Homo sapiens), P00519 [Q252H]. The description is as §1. The format is cell-based. To be noted: at 1 µM.
The test system of assay [10] is Tyrosine-protein kinase ABL1 (Homo sapiens), P00519 [T315I]. Described as §1. The settings on record: at 1 µM. The format is cell-based.
Assay [11] concerns Tyrosine-protein kinase ABL1 (Homo sapiens), P00519 [Y253F]. The assay is described as §1. The format is cell-based. The settings on record: at 1 µM.
For assay [12], the target named is Tyrosine-protein kinase ABL1 (Homo sapiens, UniProt P00519). The assay is described as §1. The format is cell-based. The settings on record: at 1 µM.
Assay [13] addresses T2, Inhibitor of nuclear factor kappa-B kinase subunit alpha (Homo sapiens) (UniProt O15111).
T2 sequence (whole entry): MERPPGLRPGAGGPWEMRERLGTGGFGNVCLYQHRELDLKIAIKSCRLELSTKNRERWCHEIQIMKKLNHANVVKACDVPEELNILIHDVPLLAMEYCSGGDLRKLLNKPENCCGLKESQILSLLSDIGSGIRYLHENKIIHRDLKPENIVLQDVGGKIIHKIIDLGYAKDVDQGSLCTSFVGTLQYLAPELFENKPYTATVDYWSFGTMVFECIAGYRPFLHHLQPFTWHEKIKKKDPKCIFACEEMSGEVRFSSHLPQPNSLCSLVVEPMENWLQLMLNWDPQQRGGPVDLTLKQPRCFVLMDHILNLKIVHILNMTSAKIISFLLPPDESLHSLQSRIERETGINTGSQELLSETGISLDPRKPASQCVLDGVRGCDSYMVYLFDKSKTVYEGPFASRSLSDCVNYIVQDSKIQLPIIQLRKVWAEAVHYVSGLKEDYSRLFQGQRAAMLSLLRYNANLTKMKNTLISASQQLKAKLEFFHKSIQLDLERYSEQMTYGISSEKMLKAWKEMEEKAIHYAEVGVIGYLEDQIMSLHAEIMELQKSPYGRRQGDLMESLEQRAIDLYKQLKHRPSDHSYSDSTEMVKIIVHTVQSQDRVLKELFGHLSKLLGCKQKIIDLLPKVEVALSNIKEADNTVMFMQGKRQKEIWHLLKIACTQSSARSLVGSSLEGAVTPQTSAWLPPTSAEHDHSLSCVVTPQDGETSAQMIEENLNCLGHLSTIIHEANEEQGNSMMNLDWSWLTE
In words: Selectivity interaction (KinomeScan (DiscoverX)) EUB0000618a CHUK. The settings on record: at 10 µM.

Chain of Serine/threonine-protein kinase OSR1 (Homo sapiens) (O95747 2-527 limits assumed): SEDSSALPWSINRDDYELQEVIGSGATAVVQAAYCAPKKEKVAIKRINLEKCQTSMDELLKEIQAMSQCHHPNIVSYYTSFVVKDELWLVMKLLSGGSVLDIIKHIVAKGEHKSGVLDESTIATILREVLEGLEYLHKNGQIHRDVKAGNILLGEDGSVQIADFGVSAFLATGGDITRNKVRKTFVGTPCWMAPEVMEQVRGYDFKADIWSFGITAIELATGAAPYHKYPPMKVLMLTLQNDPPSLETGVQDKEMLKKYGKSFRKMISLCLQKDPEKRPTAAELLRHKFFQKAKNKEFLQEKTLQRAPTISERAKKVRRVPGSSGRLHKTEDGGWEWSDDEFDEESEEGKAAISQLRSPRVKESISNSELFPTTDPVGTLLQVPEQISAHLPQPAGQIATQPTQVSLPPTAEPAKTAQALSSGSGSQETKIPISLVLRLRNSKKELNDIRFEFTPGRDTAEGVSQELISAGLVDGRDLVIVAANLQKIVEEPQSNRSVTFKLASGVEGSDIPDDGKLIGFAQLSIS
Chain of G protein-coupled receptor kinase 4 (Homo sapiens) (P32298 whole entry, looked up): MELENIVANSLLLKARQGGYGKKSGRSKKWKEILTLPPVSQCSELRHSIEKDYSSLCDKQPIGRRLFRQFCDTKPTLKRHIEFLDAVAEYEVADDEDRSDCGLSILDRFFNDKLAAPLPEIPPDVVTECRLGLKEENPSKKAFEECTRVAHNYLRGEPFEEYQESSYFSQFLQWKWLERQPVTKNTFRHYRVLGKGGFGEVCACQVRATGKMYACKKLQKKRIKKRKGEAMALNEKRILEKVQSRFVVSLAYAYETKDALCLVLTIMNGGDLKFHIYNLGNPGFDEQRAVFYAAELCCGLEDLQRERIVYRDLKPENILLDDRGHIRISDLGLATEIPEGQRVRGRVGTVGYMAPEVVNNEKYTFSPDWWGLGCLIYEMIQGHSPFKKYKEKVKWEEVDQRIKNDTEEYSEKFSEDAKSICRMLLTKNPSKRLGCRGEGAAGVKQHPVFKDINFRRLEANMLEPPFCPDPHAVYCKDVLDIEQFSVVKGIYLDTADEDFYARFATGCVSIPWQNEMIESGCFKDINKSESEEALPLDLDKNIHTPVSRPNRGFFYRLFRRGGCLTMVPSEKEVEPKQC

Turning to `N#Cc1cccc(-c2c[nH]c3ncnc(N4CCOCC4)c23)c1`, in assay [1], the % of control amounted to 52%.
In assay [2], `Cc1cc([C@@H](C)Nc2ccccc2C(=O)O)c2nc(N3CCOCC3)cc(=O)n2c1` [AZD-6482] yielded a % of control of 100%.
Turning to `CC[C@@H]1[C@H](F)C(=O)N[C@@H]1COc1nccc2cc(C(N)=O)c(OC)cc12` [ZIMLOVISERTIB], the % of inhibition in [3] (at 0.01 µM) was -18.1%; in assay [3] (at 0.04 µM), -9.1%; in assay [3] (at 0.2 µM), -3%; in assay [3] (at 1 µM) it was -10.3%; in [3] (at 5 µM) it was 16.3%.
`CN(C)C/C=C/C(=O)Nc1ccc(C(=O)N2CCCC(Nc3ncc(Cl)c(-c4c[nH]c5ccccc45)n3)C2)cc1` (configuration not stated): the % of control in [4] was 45%; in assay [5], 100%; in [6], 91%; in assay [7] it was 95%; in assay [8], 88%; in assay [9], 58%. In addition, the % of control in assay [10] was found to be 99%; in assay [11], 92%; in assay [12], 94%.
`O[C@H]1CC[C@H](Nc2ncc3nc(Nc4c(F)cc(F)cc4F)n([C@H]4CCOC4)c3n2)CC1` displayed a % of control in assay [13] of 86%.
